Measured values taken from patent US10538528B2, “5H-pyrrolo[2,3-D]pyrimidin-6(7H)-one derivative” (Taiho Pharmaceutical Co., Ltd., priority 2016, dated 2020).

Experiments:
Type in all cases: biochemical
[1] = molecular target: S6K1 (Homo sapiens (Human), UniProt P23443); test: Inhibitory effects on S6K1 kinase activity (QSS Assist FP assay kit); conditions: S6K1, ATP 25 μM; read-out: S6K inhibitory activity IC50
Protocol: Inhibitory activity of the compound according to the present invention on S6K1 kinase activity in vitro was assayed using the QSS Assist™ FP assay kit (Carna Biosciences, Inc.).
In the inhibition assay for inhibitory activity of the compound, the test compound was diluted by serial dilution with dimethyl sulfoxide (DMSO). Subsequently, an S6K protein, a substrate peptide (final concentration: 100 nM), magnesium chloride (final concentration: 5 mM), ATP (final concentration: 25 μM), and the solution of the test compound in DMSO (final DMSO concentration: 5%) were added to the kinase reaction buffer (20 mM HEPES (pH 7.4), 2 mM dithiothreitol, 0.01% Tween-20), and the mixture was incubated at 25° C. for 30 minutes to perform the kinase reaction. The IMAP Progressive Binding Reagent diluted to 400-fold with the IMAP Progressive Binding Buffer A (Molecular Devices, LLC) was added thereto to terminate the kinase reaction. The reaction product was allowed to stand at room temperature in the dark for 120 minutes and assayed with the use of PHERAstar (BMG LABTECH; excitation wavelength: 485 nm; detection wavelength: 520 nm). The level of phosphorylation reaction was determined based on the degree of fluorescence polarization, and the concentration of the compound at which phosphorylation could be inhibited by 50% was defined as the IC50 level (nM) and shown in Table 4.

[2] = molecular target: Rsk1 (Homo sapiens (Human), UniProt Q15418); test: Inhibitory effects on Rsk1 kinase activity (QSS Assist FP assay kit); conditions: Rsk1, ATP 30 μM; read-out: Rsk inhibitory activity IC50
Sequence of Rsk1 (Q15418 whole entry): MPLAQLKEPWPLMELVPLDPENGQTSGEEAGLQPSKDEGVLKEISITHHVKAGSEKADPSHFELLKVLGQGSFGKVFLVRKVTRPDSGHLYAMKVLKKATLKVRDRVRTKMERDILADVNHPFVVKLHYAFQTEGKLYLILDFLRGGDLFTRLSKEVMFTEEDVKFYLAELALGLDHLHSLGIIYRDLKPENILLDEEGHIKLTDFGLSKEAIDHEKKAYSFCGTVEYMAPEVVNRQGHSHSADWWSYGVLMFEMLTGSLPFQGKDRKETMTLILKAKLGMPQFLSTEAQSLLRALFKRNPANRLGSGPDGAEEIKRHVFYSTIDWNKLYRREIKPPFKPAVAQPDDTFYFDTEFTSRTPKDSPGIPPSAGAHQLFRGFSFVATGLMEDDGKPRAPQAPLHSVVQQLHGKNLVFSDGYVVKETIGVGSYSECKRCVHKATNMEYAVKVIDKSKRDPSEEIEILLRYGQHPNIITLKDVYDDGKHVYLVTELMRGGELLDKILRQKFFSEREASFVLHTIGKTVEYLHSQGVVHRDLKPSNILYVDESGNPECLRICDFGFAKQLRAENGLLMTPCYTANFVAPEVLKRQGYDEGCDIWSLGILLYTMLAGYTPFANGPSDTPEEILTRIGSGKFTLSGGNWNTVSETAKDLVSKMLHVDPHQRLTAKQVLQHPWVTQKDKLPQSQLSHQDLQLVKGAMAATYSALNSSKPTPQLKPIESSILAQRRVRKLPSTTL
Protocol: Inhibitory activity of the compound according to the present invention on Rsk1 kinase activity in vitro was assayed using the QSS Assist™ FP assay kit (Carna Biosciences, Inc.).
In the inhibition assay of inhibitory activity of the compound, the test compound was diluted by serial dilution with dimethyl sulfoxide (DMSO). Subsequently, an Rsk1 protein, a substrate peptide (final concentration: 100 nM), magnesium chloride (final concentration: 10 mM), ATP (final concentration: 30 μM), and the solution of the test compound in DMSO (DMSO final concentration: 5%) were added to the kinase reaction buffer (20 mM HEPES (pH 7.4), 2 mM dithiothreitol, 0.01% Tween-20), and the mixture was incubated at 25° C. for 40 minutes to perform the kinase reaction. The IMAP Progressive Binding Reagent diluted to 400-fold with the IMAP Progressive Binding Buffer A (Molecular Devices, LLC) was added to terminate the kinase reaction.

[3] = molecular target: human Akt1 (Homo sapiens (Human), UniProt P31749); test: Inhibitory effects on Akt1 kinase activity (TR-FRET, biotinylated Crosstide); conditions: Akt1, ATP 150 μM, pre-incubation 120 minutes at 25° C.; read-out: AKT inhibitory activity IC50
Sequence of human Akt1 (P31749 whole entry): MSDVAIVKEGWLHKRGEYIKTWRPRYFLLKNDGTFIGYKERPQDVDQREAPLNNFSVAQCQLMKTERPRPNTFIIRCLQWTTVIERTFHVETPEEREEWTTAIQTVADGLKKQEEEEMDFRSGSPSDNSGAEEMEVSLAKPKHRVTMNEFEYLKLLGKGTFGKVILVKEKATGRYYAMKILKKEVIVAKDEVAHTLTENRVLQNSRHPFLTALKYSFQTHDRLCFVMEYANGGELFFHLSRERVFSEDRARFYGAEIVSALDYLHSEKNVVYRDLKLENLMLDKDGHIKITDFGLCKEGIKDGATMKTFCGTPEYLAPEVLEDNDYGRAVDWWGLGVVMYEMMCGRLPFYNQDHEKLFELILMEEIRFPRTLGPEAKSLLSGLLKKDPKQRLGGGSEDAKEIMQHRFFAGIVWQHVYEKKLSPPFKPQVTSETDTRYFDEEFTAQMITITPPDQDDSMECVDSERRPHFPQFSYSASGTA
Protocol: Akt1 was prepared and assays of inhibitory activity of the compound according to the present invention against Akt1 kinase activity in vitro were conducted according to the method described in Biochem. J., vol. 385, pp. 399-408, 2005 and Cancer Res., vol. 68, pp. 2366-2374, 2008. In the preparation of Akt1 protein, human Akt1 tagged with the middle T antigen was expressed in an insect cell Sf9, Akt1 was prepared through affinity purification and activation by PDK1, and the resultant was stored at −80° C. until the inhibition assays of the compounds. In the inhibition assay of the compounds, Akt1 and the compound according to the present invention were subjected to pre-incubation at 25° C. for 120 minutes in a reaction buffer (15 mM Tris-HCl, pH 7.5, 0.01% Tween-20, 2 mM DTT). Subsequently, biotinylated Crosstide (biotin-[…], Millipore), MgCl2, and ATP were added as substrates at the final concentration of 500 nM, 10 mM, and 150 μM, respectively, and the reaction was allowed to proceed at 25° C. for 60 minutes. EDTA was added to the final concentration of 40 mM to terminate the reaction, a detection liquid containing the Eu-anti-phospho-Crosstide antibody (PerkinElmer) and SureLight APC-SA (PerkinElmer) at the final concentration of 0.5 nM and 62.5 nM, respectively was added, and the reaction was allowed to proceed at room temperature for 2 hours. In the end, the fluorescence levels irradiated with an excitation light of 337 nm were assayed at two different wavelength levels (i.e., 620 nm and 665 nm) using PI-HERAstar FS (BMG LABTECH) or PHERAstar (BMG LABTECH). The level of the phosphorylation reaction was determined on the basis of the ratio of fluorescence levels at two wavelength levels, and the concentration of the compound at which phosphorylation could be inhibited by 50% was defined as the IC50 level (nM) and shown in Table 2.
As reference compounds, conventional Comparative Example A (WO 2010/056563 (Example 31)) and Comparative Example B having inhibitory activity against Akt were used.

Sequence of S6K1 (P23443 whole entry): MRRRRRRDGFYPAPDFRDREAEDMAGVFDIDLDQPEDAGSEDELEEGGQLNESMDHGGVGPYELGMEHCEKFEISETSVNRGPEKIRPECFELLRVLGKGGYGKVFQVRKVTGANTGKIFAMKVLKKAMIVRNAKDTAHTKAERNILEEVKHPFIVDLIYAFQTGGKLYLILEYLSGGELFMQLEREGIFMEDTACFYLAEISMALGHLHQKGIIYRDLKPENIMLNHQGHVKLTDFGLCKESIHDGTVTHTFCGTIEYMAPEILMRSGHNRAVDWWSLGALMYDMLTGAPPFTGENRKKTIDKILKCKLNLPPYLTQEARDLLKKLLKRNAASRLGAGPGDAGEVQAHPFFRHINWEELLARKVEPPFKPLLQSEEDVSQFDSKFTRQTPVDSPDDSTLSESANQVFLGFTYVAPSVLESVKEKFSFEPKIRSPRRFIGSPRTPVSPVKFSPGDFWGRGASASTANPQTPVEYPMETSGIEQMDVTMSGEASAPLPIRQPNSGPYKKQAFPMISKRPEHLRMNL

SMILES | IC50 [1] [nM] | IC50 [2] [nM] | IC50 [3] [nM]
CC(C)NCCNc1cc(F)c(-c2cncc(F)c2)nc1C1CCN(c2ncnc3c2C(C)(C)C(=O)N3)CC1 [Compound 28, 4-(4-(3,5′-Difluoro-5-((2-(isopropylamino)ethyl)amino)-[2,3′-bipyridin]-6-yl)piperidin-1-yl)-5,5-dimethyl-5H-pyrrolo[2,3-d]pyrimidin-6(7H)-one] | 0.3 |  | 
CC1C(=O)Nc2ncnc(N3CCC(c4nc(-c5ccsc5)ccc4NCCN4CCCC4)CC3)c21 (stereo not shown) [Compound 18, 5-Methyl-4-(4-(3-((2-(pyrrolidin-1-yl)ethyl)amino)-6-(thiophen-3-yl)pyridin-2-yl)piperidin-1-yl)-5H-pyrrolo[2,3-d]pyrimidin-6(7H)-one] | 0.8 | 1.4 | 0.5
CCNCCNc1ccc(-c2cncc(F)c2)nc1C1CCN(c2ncnc3c2C(C)(C)C(=O)N3)CC1 [Compound 12, 4-(4-(5-((2-(Ethylamino)ethyl)amino)-5′-fluoro[2,3′-bipyridin]-6-yl)piperidin-1-yl)-5,5-dimethyl-5H-pyrrolo[2,3-d]pyrimidin-6(7H)-one] | 0.3 | 1.8 | 
CC(C)NCCNc1ccc(-c2nnc(C(F)F)o2)nc1C1CCN(c2ncnc3c2C(C)(C)C(=O)N3)CC1 [Compound 31, 4-(4-(6-(5-(Difluoromethyl)-1,3,4-oxadiazol-2-yl)-3-((2-(isopropylamino)ethyl)amino)pyridin-2-yl)piperidin-1-yl)-5,5-dimethyl-5H-pyrrolo[2,3-d]pyrimidin-6(7H)-one] | 0.6 | 1.8 | 7.6
CC1(C)C(=O)Nc2ncnc(N3CCC(c4nc(-c5ccc(F)nc5)ccc4NCCN4CCCC4)CC3)c21 [Compound 2, 4-(4-(6′-Fluoro-5-((2-(pyrrolidin-1-yl)ethyl)amino)-[2,3′-bipyridin]-6-yl)piperidin-1-yl)-5,5-dimethyl-5H-pyrrolo[2,3-d]pyrimidin-6(7H)-one] | 0.3 | 1.5 | 
Cc1nc(C)c(-c2ccc(NCCNC(C)C)c(C3CCN(c4ncnc5c4C(C)(C)C(=O)N5)CC3)n2)s1 [Compound 6, 4-(4-(6-(2,4-Dimethylthiazol-5-yl)-3-((2-(isopropylamino)ethyl)amino)pyridin-2-yl)piperidin-1-yl)-5,5-dimethyl-5H-pyrrolo[2,3-d]pyrimidin-6(7H)-one] | 0.4 | 1 | 
Cc1ncccc1-c1ccc(NCCN2CCCC2)c(C2CCN(c3ncnc4c3C(C)C(=O)N4)CC2)n1 (stereo not shown) [Compound 22, 5-Methyl-4-(4-(2′-methyl-5-((2-(pyrrolidin-1-yl)ethyl)amino)-[2,3′-bipyridin]-6-yl)piperidin-1-yl)-5H-pyrrolo[2,3-d]pyrimidin-6(7H)-one] |  |  | 1.8
COc1cncc(-c2ccc(NCCN3CCCC3)c(C3CCN(c4ncnc5c4C(C)(C)C(=O)N5)CC3)n2)c1 [Compound 7, 4-(4-(5′-Methoxy-5-((2-(pyrrolidin-1-yl)ethyl)amino)-[2,3′-bipyridin]-6-yl)piperidin-1-yl)-5,5-dimethyl-5H-pyrrolo[2,3-d]pyrimidin-6(7H)-one] | 0.3 | 1.7 | 
CN(C)CCNc1ccc(-c2cc(Cl)nn2C)nc1C1CCN(c2ncnc3c2C(C)(C)C(=O)N3)CC1 [Compound 9, 4-(4-(6-(3-Chloro-1-methyl-1H-pyrazol-5-yl)-3-((2-(dimethylamino)ethyl)amino)pyridin-2-yl)piperidin-1-yl)-5,5-dimethyl-5H-pyrrolo[2,3-d]pyrimidin-6(7H)-one] | 0.3 | 1.1 | 
CC(C)(C)NCCNc1ccc(-c2cnn(C(F)F)c2)nc1C1CCN(c2ncnc3c2C(C)(C)C(=O)N3)CC1 [Compound 4] | 0.4 |  | 
CC1C(=O)Nc2ncnc(N3CCC(c4nc(-c5ncco5)ccc4NCCN4CCCC4)CC3)c21 (stereo not shown) [Compound 25, 5-Methyl-4-(4-(6-(oxazol-2-yl)-3-((2-(pyrrolidin-1-yl)ethyl)amino)pyridin-2-yl)piperidin-1-yl)-5H-pyrrolo[2,3-d]pyrimidin-6(7H)-one] |  |  | 2.7
CC(C)NCCNc1ccc(-c2cc(C(F)(F)F)nn2C)nc1C1CCN(c2ncnc3c2C(C)(C)C(=O)N3)CC1 [Compound 10, 4-(4-(3-((2-(Isopropylamino)ethyl)amino)-6-(1-methyl-3-(trifluoromethyl)-1H-pyrazol-5-yl)pyridin-2-yl)piperidin-1-yl)-5,5-dimethyl-5H-pyrrolo[2,3-d]pyrimidin-6(7H)-one] | 0.3 | 0.9 | 
CC1(C)C(=O)Nc2ncnc(N3CCC(c4nc(-c5nnc(C(F)(F)F)o5)ccc4NC[C@@H]4CCCN4)CC3)c21 [Compound 35, (S)-5,5-Dimethyl-4-(4-(3-((pyrrolidin-2-yl-methyl)amino)-6-(5-(trifluoromethyl)-1,3,4-oxadiazol-2-yl)pyridin-2-yl)piperidin-1-yl)-5H-pyrrolo[2,3-d]pyrimidin-6(7H)-one] | 0.4 | 1.5 | 
CC1(C)C(=O)Nc2ncnc(N3CCC(c4nc(-c5cncc(F)c5)ccc4NCCN4CCCC4)CC3)c21 [Compound 8, 4-(4-(5′-Fluoro-5-((2-(pyrrolidin-1-yl)ethyl)amino)-[2,3′-bipyridin]-6-yl)piperidin-1-yl)-5,5-dimethyl-5H-pyrrolo[2,3-d]pyrimidin-6(7H)-one] | 0.3 | 1.7 | 
Cc1nnc(-c2ccc(NCCN3CCCC3)c(C3CCN(c4ncnc5c4C(C)(C)C(=O)N5)CC3)n2)s1 [Compound 36, 5,5-Dimethyl-4-(4-(6-(5-methyl-1,3,4-thiadiazol-2-yl)-3-((2-(pyrrolidin-1-yl)ethyl)amino)pyridin-2-yl)piperidin-1-yl)-5H-pyrrolo[2,3-d]pyrimidin-6(7H)-one] | 0.4 |  | 
Cc1cc(-c2ccc(NCCN3CCCC3)c(C3CCN(c4ncnc5c4C(C)(C)C(=O)N5)CC3)n2)n(C)n1 [Compound 3, 4-(4-(6-(1,3-Dimethyl-1H-pyrazol-5-yl)-3-((2-(pyrrolidin-1-yl)ethyl)amino)pyridin-2-yl)piperidin-1-yl)-5,5-dimethyl-5H-pyrrolo[2,3-d]pyrimidin-6(7H)-one] | 0.4 |  | 
CN(C)CCNc1ccc(-c2nnc(C(F)F)s2)nc1C1CCN(c2ncnc3c2C(C)(C)C(=O)N3)CC1 [Compound 38, 4-(4-(6-(5-(Difluoromethyl)-1,3,4-thiadiazol-2-yl)-3-((2-(dimethylamino)ethyl)amino)pyridin-2-yl)piperidin-1-yl)-5,5-dimethyl-5H-pyrrolo[2,3-d]pyrimidin-6(7H)-one] | 0.3 | 0.9 | 
CC1C(=O)Nc2ncnc(N3CCN(c4nc(-c5cncc(F)c5)ccc4NCCN(C)C)CC3)c21 (stereo not shown) [Compound 29, 4-(4-(5-((2-(Dimethylamino)ethyl)amino)-5′-fluoro-[2,3′-bipyridin]-6-yl)piperazin-1-yl)-5-methyl-5H-pyrrolo[2,3-d]pyrimidin-6(7H)-one] | 0.8 |  | 
